From patent publication US5883074A, “Potentiators of antibacterial agents” (priority 1995, dated 1999)

Assays:
[1] = tested on: MRSA; test: Potentiation screening assay: methicillin MIC reduction in MRSA; type: cell-based, Staphylococcus aureus; settings: 0, 5, and 10 μg/ml test compound
Procedure: After regrowth at 35° C. to an OD600 of 0.2-0.4 (1-2 hrs.), the cells are diluted 1/1000 in MHB. […] The plate is placed in a humidified 35° C. incubator for 5-24 hours, and cell growth or inhibition is read as turbidity (OD600). Two positive and one negative controls for growth are cells grown MHB, cells grown in MHB plus 20 μg/ml methicillin alone (without test compound), and uninoculated MHB respectively.
Compounds which meet the first two criteria for follow-up are evaluated in a standard microdilution assessment of the MIC with methicillin for MRSA. (see Lorian, Antibiotics in Laboratory Medicine, 3rd ed., pp. 72-75 (1991).) In order to be carried further, the MIC of methicillin preferably is reduced in the presence of the potentiator to at most twice the MIC of a susceptible strain for methicillin.
MICs for the compounds were determined in the presence of 0, 5, and 10 μg/ml of each compound. MRSA cells were grown in the presence of 0, 5, and 10 μg/ml test compound and concentrations of methicillin obtained from serial two-fold dilutions starting at 1024 μg/ml to 0.002 μg/ml (This range can be extended or refined as appropriate.) as follows: A fresh inoculum of MRSA cells was grown at 35° C. in Mueller-Hinton Broth (MHB) overnight and then diluted 1/50 in the same medium. After regrowth at 35° C. to an OD600 of 0.2-0.4 (1-2 hrs.), the cells were diluted 1/1000 in MHB. […] The plate was placed in a humidified 35° C. incubator for 24 hours, and cell growth or inhibition was read as turbidity (OD600).

[2] = tested on: MRSA; test: Specificity: intrinsic antibacterial activity without antibacterial agent; type: cell-based, Staphylococcus aureus; settings: test compound alone, without methicillin
Procedure: In order to ascertain that the test compound is not primarily responsible for inhibition of growth, MRSA cells are grown in the presence of 5 μg/ml test compound as follows: A fresh inoculum of MRSA cells is grown at 35° C. in Mueller-Hinton Broth (MHB) overnight and then diluted 1/50 in the same medium. After regrowth at 35° C. to an OD600 of 0.2-0.4 (1-2 hrs.), the cells are diluted 1/1000 in MHB. In a microtiter plate, 50 μl of this diluted culture is combined with 50 μl MHB containing 10 μg/ml test compound to give starting growth conditions of 5×10^5 cfu/ml in MHB, with 5 μg/ml test compound. The plate is placed in a humidified 35° C. incubator for 5-24 hours, and cell growth or inhibition is read as turbidity (OD600). To be carried forward to the next step of the potentiator screening assay, the test compound should have little or no intrinsic anti-staphylococcal activity (growth should be at least 75% of the growth of the positive control without methicillin, corrected for background), or that activity should be explicable without indicating the probability of human toxicity.

| Compound | effect on the MIC for methicillin [1] | intrinsic antimicrobial activity [2] |
| --- | --- | --- |
| COc1cc2c(cc1OC)C(=O)CCC2 [6,7-dimethoxy-1-tetralone] | little or no effect on the MIC for methicillin | – |
| COc1ccc2c(c1)CC[C@@H]1[C@@H]2CC[C@]2(C)[C@@H](O)CC[C@@H]12 [β-estradiol-3-methyl ether] | reduce the MIC for methicillin | not exhibiting intrinsic antimicrobial activity |
| C[C@@]12CCC[C@H]1[C@@H]1CC[C@@H]3C[C@H](O)CC[C@]3(C)[C@H]1CC2 [5β-androstan-3-α-ol] | reduce the MIC for methicillin | not exhibiting intrinsic antimicrobial activity |
| COc1ccc2c(c1)CCCC2=O [6-methoxy-1-tetralone] | little or no effect on the MIC for methicillin | – |
| 10a, 12a dimethyl 1-8-hydroxy-tetradecahydrochrysene | reduce the MIC for methicillin | not exhibiting intrinsic antimicrobial activity |
| COc1ccc2c(c1)[C@]13CCCC[C@@H]1[C@H](C2)N(C)CC3 [dextromethorphan] | little or no effect on the MIC for methicillin | – |
| CC1(C)CCCC2(C)C1CCC1(C)OC(=O)CC12 (single isomer, unassigned) [(3aR) -(+) -sclareolide] | little or no effect on the MIC for methicillin | – |
| C=C1CC[C@H](O)C/C1=C/C=C1\CCC[C@]2(C)[C@@H]([C@H](C)/C=C/[C@H](C)C(C)C)CC[C@@H]12 [ergocalciferol] | little or no effect on the MIC for methicillin | – |
| COc1ccc2c(c1)CCCC2 [6-methoxy-1,2,3,4-tetrahydronaphthalene] | little or no effect on the MIC for methicillin | – |
| C=C1CC[C@@H]2[C@](C)(CO)[C@H](O)CC[C@@]2(C)[C@@H]1C/C=C1/C(=O)OC[C@H]1O [andrographolide] | little or no effect on the MIC for methicillin | – |
| COC(=O)C1(C)CCCC2(C)c3cc(OC)ccc3CCC12 (stereo not drawn) [methyl o-methyl-podocarpate] | little or no effect on the MIC for methicillin | – |
| 4a, 5-epoxy-3-oxo-14H-4,6a,9,9-4mephenanthro (2,3-D)(1,3)dioxole-4-propionic acid | little or no effect on the MIC for methicillin | – |
| C[C@]12CC[C@@H]3c4ccc(O)cc4CC[C@H]3[C@@H]1CC[C@@H]2O [β-estradiol] | little or no effect on the MIC for methicillin | – |
| C[C@]12CC[C@H](O)C[C@@H]1CC[C@@H]1[C@@H]2CC[C@]2(C)C(=O)CC[C@@H]12 [epiandrosterone] | little or no effect on the MIC for methicillin | – |
| C[C@@]12CCC[C@H]1[C@@H]1CC[C@H]3C[C@@H](O)CC[C@]3(C)[C@H]1CC2 [5-α-androstan-3β-ol] | reduce the MIC for methicillin | not exhibiting intrinsic antimicrobial activity |
| C[C@@]12CCC[C@H]1[C@@H]1CC[C@@H]3C[C@@H](O)CC[C@]3(C)[C@H]1CC2 [5β-androstan-3β-ol] | reduce the MIC for methicillin | not exhibiting intrinsic antimicrobial activity |
| C[C@]12CC[C@@H]3c4ccc(O)cc4CC[C@H]3[C@@H]1CC[C@H]2O [α-estradiol] | little or no effect on the MIC for methicillin | – |
| C[C@H]1[C@H](C)CC[C@]2(CO)CC[C@]3(C)C(=CC[C@@H]4[C@@]5(C)CC[C@H](O)C(C)(C)[C@@H]5CC[C@]43C)[C@H]12 [uvaol] | reduce the MIC for methicillin | not exhibiting intrinsic antimicrobial activity |
